Source: patent publication US20110117169A1, “METHODS AND COMPOSITIONS FOR CAPTURE OF CELLS” (AFFINERGY, INC., priority 2009, published 2011)
Ends that are not written are not given here.

Legend:
[1] = system: endothelial colony forming cells (ECFCs); experiment: Biotinylated peptide binding to endothelial and other cells, flow cytometry; set-up: species or system human; conditions: biotinylated peptide 10 μM, 30 min at 4° C.
Procedure: (§1) The synthetic biotinylated binding peptide SEQ ID NO: 4 was further examined for its ability to bind endothelial cells compared to other cell types (see FIG. 16). […] ECFCs are clonally expanded cells isolated from human umbilical cord blood, and are considered highly proliferative endothelial progenitor cells (EPCs) based on their clonogenic and proliferative potential. In another experiment, binding peptide SEQ ID NO: 4 was assayed for its ability to selectively isolate endothelial cells versus smooth muscle cells in the presence of whole blood. HUVECs or UASMCs were incubated in the presence of medium containing 20% whole blood and binding peptide SEQ ID NO: 4-conjugated magnetic beads (via biotin-SA) for 30 min. The solutions containing the bead-peptide-cell complexes were then passed through a […] LS column in a magnetic field. The column was washed, and the remaining peptide-bound cells were then released from the magnetic field and counted.

dermal fibroblasts = experiment: Biotinylated peptide cell binding specificity, flow cytometry with Neutravidin-PE; set-up: species or system human; conditions: 25 μM solution, 30 min at 4° C.
Text: (§2) The synthetic biotinylated cell binding peptide SEQ ID NO: 4 was examined for its ability to specifically bind MSCs compared to a number of other cells types including adipose-derived mesenchymal stem cells (ASCs), dermal fibroblasts, rodent MSCs, red blood cells, monocytes, lymphocytes and granulocytes. The cell binding peptide was biotinylated as described herein at Example 2. Cultured cells of each type were either purchased (ASCs and dermal fibroblasts) or isolated from rodent bone marrow (rodent MSCs) or human blood. Cells were first harvested and resuspended at 10^6/mL in PBS+2% fetal bovine serum (FBS). An aliquot of cells (50 μL) was incubated in 50 μL of peptide solution (25 μM in PBS+FBS) for 30 min at 4° C. Cells were then washed twice in PBS+FBS with 300×g centrifugation for 5 min between washes. Fluorescently-tagged neutravidin (Neutravidin-PE from INVITROGEN) was then added to the cells to label biotinylated peptide bound to cells. Neutravidin-PE was diluted 1:250 from stock and applied at 50 μL to cells. Cells were then washed in PBS+FBS, and acquired on a BD […]. Peptide reactivity was then measured as percent positivity relative to Neutravidin-PE staining without the addition of biotinylated peptide.

[2] = system: human ASCs (adipose-derived mesenchymal stem cells); experiment: as above; conditions: 25 μM solution, 30 min at 4° C.
Text: as §2

human MSCs = experiment: as above; conditions: 25 μM solution, 30 min at 4° C.
Text: as §2

[3] = system: umbilical artery smooth muscle cells (UASMCs); experiment: Biotinylated peptide binding to endothelial and other cells, flow cytometry; conditions: biotinylated peptide 10 μM, 30 min at 4° C.
Procedure: as §1

[4] = system: human umbilical vein endothelial cells (HUVECs); experiment: as above; conditions: biotinylated peptide 10 μM, 30 min at 4° C.
Procedure: as §1

TGF-β3 = biological target: T1, TGF-β3 (Homo sapiens, UniProt P10600); experiment: ELISA-type binding of growth factor to biotinylated peptide on streptavidin plates; conditions: peptide 0.2 μM on streptavidin plate, TGF-β3 1 μM-1 nM
T1 sequence (P10600 301-412 limits assumed): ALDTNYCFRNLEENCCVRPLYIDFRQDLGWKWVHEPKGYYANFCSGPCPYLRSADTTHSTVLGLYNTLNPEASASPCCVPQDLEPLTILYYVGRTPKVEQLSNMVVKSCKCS
Text: Peptides that bind TGF-β3 were identified by phage display biopanning. Recombinant human TGF-β3 (rhTGF-β3) was biotinylated and immobilized on streptavidin-coated microtiter plates. Twenty-two different phage display libraries were used for the selection. Enrichment of target-binding phage in the selection was monitored using an ELISA-type assay with an HRP-conjugated anti-M13 antibody. After enrichment for TGF-β3 specific phage, individual phage were picked, propagated on E. coli, and tested for binding to TGF-β3. Over 20 individual phage were isolated that bound TGF-β3. […] The TGF-β3-binding peptide sequences were then synthesized using standard solid-phase peptide synthesis techniques on a Symphony Peptide Synthesizer (PROTEIN TECHNOLOGIES, Tucson, Ariz.) using standard Fmoc chemistry as described herein above at Example 2. Biotinylated peptides were generated similarly, with a GSSGK(biotin) sequence added to the C-terminus of the peptide.
The TGF-β binding peptides with the biotin moiety on their C-terminus were tested for their ability to bind the target growth factor using the following methods. Streptavidin-coated plates were first prepared by generating a 1:100 dilution of streptavidin (1 mg/mL) in 0.1M NaHCO3 buffer. […] To reveal immunoreactivity, 100 μL of para-nitrophenyl phosphate solution was added to each well, and optical density was recorded on a spectrophotometer.

[5] = system: human MSCs (mixed with IM-9 and U937 cells); experiment: Capture of MSCs from a mixed cell population with peptide on CELLECTION magnetic beads; assay type: cell-based; conditions: starting mixture 38% IM9, 56% U937, 4% MSC
Text: In this experiment, biotinylated cell binding peptide, SEQ ID NO: 16, was attached to CELLECTION magnetic beads. The CELLECTION beads have streptavidin coupled to a magnetic particle through a DNA linker. Three different cell types, human MSCs, IM-9, and U937 cells were differentially labeled with […] dye and mixed in a ratio such that the MSCs represented ˜4% of the starting cell mixture (the percentage of each cell type in the starting mixture was 38% IM9, 56% U937, and 4% MSC). The cell binding peptide, SEQ ID NO: 16, was biotinylated as described herein at Example 2, as was a general cell binding peptide for use as a control peptide in the experiment. Magnetic particles with no peptide attached, as well as magnetic beads having attached either the cell binding peptide, SEQ ID NO: 16, or the control peptide were tested for their ability to capture human MSCs. The starting cell mixture was incubated with magnetic beads having either attached peptide or no peptide, the beads were washed, and the captured cells were released from the beads by DNase treatment. The cells were measured by flow cytometry histograms shown in 18A-18C. The magnetic beads without peptide captured little or no cells (FIG. 18B). The magnetic beads with attached cell binding peptide SEQ ID NO: 16 captured a cell population that was 96% MSCs (FIG. 18C).

“SSFWDVCQGDGTCYGGGSR (SSFWDVCQGDGTCYGGGSRGSSG-{K(biotin)}; cysteine pairing not given here) [SEQ ID NO: 4, tested biotinylated (C-terminal GSSGK(biotin) or other spacer)]” was tested, and the “cross-reactivity with ECFCs” value [1] was “cross-reacted strongly”, the “binding to dermal fibroblasts (percent positivity relative to Neutravidin-PE staining)” value (dermal fibroblasts) was “high binding” and the “binding to human ASCs (percent positivity relative to Neutravidin-PE staining)” value [2] was “high binding”. For the same sequence, the “binding to human MSCs (percent positivity relative to Neutravidin-PE staining)” value (human MSCs) was “high binding”, the “cross-reactivity with UASMCs” value [3] was “weakly” and the “cross-reactivity with HUVECs” value [4] was “cross-reacted strongly”.
In the case of “SSCNNLSVCTFDKIIERNRSSR (SSCNNLSVCTFDKIIERNRSSRGSSG-{K(biotin)}; cysteine pairing not given here) [SEQ ID NO: 21, tested with C-terminal GSSGK(biotin)]”, the “binding affinity for TGF-β3” value (TGF-β3) is reported as “best binding affinity”.
With “SSFRFGPLGTWNYPSTDNAE (also: biotin, site not given here) [SEQ ID NO: 16, tested biotinylated]” the “MSCs in captured cell population” value [5] was 96%.
